Results reported in ChEMBL document CHEMBL1201862, “PubChem BioAssay data set” (2004).
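1) Cells in 96-well plates. 2) Compound, 48 h, 5 concentrations. 3) Linear interpolation between surrounding doses. 4) Unreached endpoint = highest concentration. GI50 marks 50% less growth.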 The source made the active and inactive calls. Rule as the data show it: active = GI50 up to about 1.1 µM and inactive = higher.

Assays:
Test in all cases: growth of human tumour cells (NCI), 48 h
786-0 = tested on: 786-0
A498 = tested on: A498
HCC 2998 = tested on: HCC 2998
HL-60 = tested on: HL-60
IGROV-1 = tested on: IGROV-1
K562 = tested on: K562
LOX IMVI = tested on: LOX IMVI
M14 = tested on: M14
MOLT-4 = tested on: MOLT-4
OVCAR-3 = tested on: OVCAR-3
RXF 393 = tested on: RXF 393
SF-539 = tested on: SF-539
SN12C = tested on: SN12C
TK-10 = tested on: TK-10
U-251 = tested on: U-251
UO-31 = tested on: UO-31
CAKI-1 = tested on: CAKI-1
MCF7 = tested on: MCF7
NCI/ADR-RES = tested on: NCI/ADR-RES

Measured: GI50

O=C(O)C1CCCCN1C(=O)c1ccccc1 (stereo unspecified)
inactive: 786-0 > 100 µM | A498 > 100 µM | HCC 2998 > 100 µM | HL-60 > 100 µM | IGROV-1 > 100 µM | K562 > 100 µM | LOX IMVI > 100 µM | M14 > 100 µM | MOLT-4 > 100 µM | OVCAR-3 > 100 µM | RXF 393 > 100 µM | SF-539 > 100 µM | SN12C > 100 µM | TK-10 > 100 µM | U-251 > 100 µM | UO-31 > 100 µM

Nc1nnc2nc(CC(=O)/C=C/c3ccccc3)c(=O)[nH]n12
inactive: 786-0 > 100 µM | A498 > 100 µM | CAKI-1 > 100 µM | HCC 2998 > 100 µM | HL-60 > 100 µM | IGROV-1 > 100 µM | K562 > 100 µM | LOX IMVI > 100 µM | M14 > 100 µM | MOLT-4 > 100 µM | OVCAR-3 > 100 µM | RXF 393 > 100 µM | SF-539 > 100 µM | SN12C > 100 µM | TK-10 > 100 µM | U-251 > 100 µM | UO-31 > 100 µM

CN(C)CCNC(=O)c1cccc2ccc(-c3cccnc3)nc12
inactive: 786-0 5.89 µM | A498 1.9 µM | CAKI-1 3.88 µM | HCC 2998 5.31 µM | HL-60 3.71 µM | IGROV-1 3.24 µM | K562 4.74 µM | LOX IMVI 3.8 µM | M14 8.45 µM | MOLT-4 2.74 µM | OVCAR-3 6.27 µM | RXF 393 6.32 µM | SF-539 11.4 µM | SN12C 3.61 µM | TK-10 2.48 µM | U-251 4.36 µM | UO-31 1.98 µM

O=C(OC1C2OC(=O)c3cc(O)c(O)c(O)c3Oc3cc4c(c(O)c3O)-c3c(cc(O)c(O)c3O)C(=O)OCC3OC(O)C(OC(=O)c5cc(O)c(O)c(O)c5Oc5cc6c(c(O)c5O)-c5c(cc(O)c(O)c5O)C(=O)OC1C(COC6=O)OC2O)C(OC(=O)c1cc(O)c(O)c(O)c1)C3OC4=O)c1cc(O)c(O)c(O)c1 (stereo unspecified)
inactive: 786-0 21 µM | CAKI-1 38.3 µM | HL-60 16.2 µM | IGROV-1 40.2 µM | K562 7.8 µM | LOX IMVI 17.9 µM | M14 35.2 µM | MCF7 50.7 µM | MOLT-4 3.46 µM | NCI/ADR-RES 58.2 µM | OVCAR-3 25.8 µM | RXF 393 21.9 µM | SF-539 24.4 µM | SN12C 26.7 µM | TK-10 38.7 µM | UO-31 4.8 µM

Cn1c(=O)c(NC(=O)C(Cl)(Cl)Cl)nc2ccccc21
inactive: 786-0 > 100 µM | A498 > 100 µM | CAKI-1 > 100 µM | HCC 2998 > 100 µM | HL-60 > 100 µM | IGROV-1 > 100 µM | K562 > 100 µM | LOX IMVI > 100 µM | M14 > 100 µM | MOLT-4 > 100 µM | OVCAR-3 > 100 µM | RXF 393 81.8 µM | SF-539 > 100 µM | SN12C > 100 µM | TK-10 > 100 µM | U-251 > 100 µM | UO-31 > 100 µM

O=C(O)CCSC(=S)Nc1cccc(F)c1
inactive: 786-0 > 100 µM | A498 30.4 µM | CAKI-1 77.3 µM | HCC 2998 > 100 µM | IGROV-1 29.2 µM | K562 32.3 µM | LOX IMVI 13.9 µM | M14 37.1 µM | MOLT-4 30 µM | OVCAR-3 33.7 µM | RXF 393 30.5 µM | SF-539 26.1 µM | SN12C 60.8 µM | TK-10 43.4 µM | U-251 47.3 µM | UO-31 > 100 µM

CC1=NN(C(=O)c2cc(Cl)cc([N+](=O)[O-])c2)C(=O)C1/N=N/c1ccccc1C(=O)O (stereo unspecified)
inactive: 786-0 > 100 µM | A498 > 100 µM | CAKI-1 > 100 µM | HCC 2998 > 100 µM | HL-60 > 100 µM | IGROV-1 > 100 µM | K562 > 100 µM | MOLT-4 > 100 µM | OVCAR-3 > 100 µM | RXF 393 > 100 µM | SF-539 > 100 µM | SN12C > 100 µM | TK-10 > 100 µM | U-251 > 100 µM | UO-31 > 100 µM

CCC(C)COC(=O)c1ccc(/N=C\c2ccc(/C=N/c3ccc(C(=O)OCC(C)CC)cc3)cc2)cc1 (stereo unspecified)
inactive: 786-0 > 100 µM | A498 > 100 µM | CAKI-1 > 100 µM | HCC 2998 > 100 µM | HL-60 > 100 µM | IGROV-1 > 100 µM | K562 > 100 µM | LOX IMVI > 100 µM | M14 > 100 µM | MOLT-4 > 100 µM | OVCAR-3 > 100 µM | RXF 393 > 100 µM | SF-539 > 100 µM | SN12C > 100 µM | U-251 > 100 µM | UO-31 10.5 µM

O=C(Nc1c(-c2nc3ccccc3[nH]2)sc(=S)n1-c1ccccc1)c1ccccc1
inactive: 786-0 91.2 µM | A498 > 100 µM | CAKI-1 > 100 µM | HCC 2998 > 100 µM | HL-60 > 100 µM | IGROV-1 > 100 µM | K562 > 100 µM | LOX IMVI 97.1 µM | M14 > 100 µM | MOLT-4 > 100 µM | OVCAR-3 96.8 µM | RXF 393 > 100 µM | SF-539 48.8 µM | SN12C 74 µM | TK-10 > 100 µM | U-251 > 100 µM | UO-31 > 100 µM

CCOC(=O)C(=O)N1C(C)=C(C(=O)OCC)CC(C(=O)OCC)=C1C
inactive: 786-0 > 100 µM | A498 > 100 µM | CAKI-1 > 100 µM | HCC 2998 > 100 µM | HL-60 > 100 µM | IGROV-1 > 100 µM | K562 > 100 µM | LOX IMVI > 100 µM | M14 > 100 µM | MCF7 > 100 µM | MOLT-4 > 100 µM | OVCAR-3 > 100 µM | RXF 393 > 100 µM | SF-539 > 100 µM | SN12C > 100 µM | TK-10 > 100 µM | UO-31 > 100 µM

CCN(CC)CCOC(=O)c1ccc(N)cc1.CCOC(=O)Nc1ccc(S(=O)(=O)OC)cc1.CCOC(=O)Nc1ccc(S(=O)(=O)OC)cc1.Nc1ccc(C(=O)O)c(O)c1
inactive: 786-0 > 100 µM | A498 > 100 µM | CAKI-1 > 100 µM | HCC 2998 > 100 µM | HL-60 > 100 µM | IGROV-1 > 100 µM | K562 > 100 µM | LOX IMVI > 100 µM | M14 > 100 µM | MOLT-4 > 100 µM | OVCAR-3 > 100 µM | RXF 393 > 100 µM | SF-539 > 100 µM | SN12C > 100 µM | TK-10 > 100 µM | U-251 > 100 µM | UO-31 > 100 µM
